In ChEMBL document CHEMBL5338773, “First-in-Class Selective Inhibitors of the Lysine Acetyltransferase KAT8” (J Med Chem, 2023):
The source made the active and inactive calls. The rule behind the calls is not given here.

What was measured:
[1] = biological target: T1, Histone acetyltransferase KAT8 (Homo sapiens) (UniProt Q9H7Z6); experiment: Reversible inhibition of N-terminal 6His tagged KAT8 (173 to 458 residues) (unknown origin) expressed in Escherichia coli BL21(DE3) using biotinylated histone H4 peptide and [3H]Acetyl-CoA as substrates at 10XIC50 preincubated for 30 mins followed by dilution and substrate addition and measured upto 240 mins by MicroBeta microplate counter analysis; conditions: time 270.0 min
T1 sequence (whole entry): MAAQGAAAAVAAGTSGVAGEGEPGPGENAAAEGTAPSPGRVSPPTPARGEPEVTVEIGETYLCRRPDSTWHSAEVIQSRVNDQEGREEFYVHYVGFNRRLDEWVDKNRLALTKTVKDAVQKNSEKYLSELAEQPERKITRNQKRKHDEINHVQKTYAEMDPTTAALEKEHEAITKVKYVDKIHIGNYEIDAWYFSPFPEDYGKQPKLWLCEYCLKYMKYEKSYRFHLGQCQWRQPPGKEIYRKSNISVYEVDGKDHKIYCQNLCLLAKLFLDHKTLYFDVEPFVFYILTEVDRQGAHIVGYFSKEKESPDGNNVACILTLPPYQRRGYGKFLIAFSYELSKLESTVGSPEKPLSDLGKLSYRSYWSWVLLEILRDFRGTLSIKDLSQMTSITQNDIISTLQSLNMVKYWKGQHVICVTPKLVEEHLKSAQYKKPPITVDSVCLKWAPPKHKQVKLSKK

[2] = tested on: HCT-116; experiment: Antiproliferative activity against human HCT-116 cells assessed as cell proliferation inhibition at 10 to 100 uM incubated for 72 hrs by MTT assay; format: functional, cell-based; conditions: dose 10-100 µM
[3] = tested on: NCI-H460; experiment: Antiproliferative activity against human NCI-H460 cells assessed as cell proliferation inhibition at 10 to 100 uM incubated for 72 hrs by MTT assay; format: functional, cell-based; conditions: dose 10-100 µM
[4] = tested on: HCT-116; experiment: Induction of cell cycle arrest in human HCT-116 cells assessed as increase in number of cells at sub-G1 phase with DNA hypodiploid at 50 uM incubated for 72 hrs by PI-staining based flow cytometry (Rvb=2%); format: functional
[5] = species: Homo sapiens; experiment: Inhibition of human recombinant KDAC1 using Boc-Lys-(Ac)-AMC as substrate at 50 to 100 uM incubated for 45 mins by fluorescence microplate reader analysis; conditions: dose 50-100 µM
[6] = species: Homo sapiens; experiment: Inhibition of human recombinant KDAC8 using Boc-Lys-(Ac)-AMC as substrate at 50 to 100 uM incubated for 45 mins by fluorescence microplate reader analysis; conditions: dose 50-100 µM
[7] = tested on: HCT-116; experiment: Induction of apoptosis in human HCT-116 cells assessed as slight increase in apoptotic cells at 50 to 100 uM incubated for 72 hrs by Annexin V-FITC staining based flow cytometry; format: functional, cell-based; conditions: dose 50-100 µM
[8] = tested on: NCI-H1299; experiment: Induction of autophagy in human NCI-H1299 cells stably expressing EGFP-LC3 assessed as increase in EGFP-LC3 puncta formation at 10 to 100 uM incubated for 48 hrs by Fluorescence microscopy; format: functional, cell-based; conditions: dose 10-100 µM
[9] = biological target: T1, Histone acetyltransferase KAT8 (Homo sapiens); experiment: Inhibition of human KAT8 in human HT-29 cells assessed as change in KAT8 expression level at 10 to 50 uM incubated for 24 hrs by Western blot analysis; format: cell-based; conditions: dose 10-50 µM
[10] = biological target: T1, Histone acetyltransferase KAT8 (Homo sapiens); experiment: Time dependent inhibition of N-terminal 6His tagged KAT8 (173 to 458 residues) (unknown origin) expressed in Escherichia coli BL21(DE3) using biotinylated histone H4 peptide and [3H]Acetyl-CoA as substrates at 200 uM preincubated for 5 to 120 mins followed by substrate addition and measured after 4 hrs by MicroBeta microplate counter analysis; conditions: time 245-360 min
[11] = Thiol reactivity of compound at pH 7.5 buffer at 0.5 mM and measured upto 24 hrs in presence of DTT and BME by HPLC analysis; format: physicochemical; conditions: pH 7.5, 24 h, 500 µM
[12] = tested on: HCT-116; experiment: Effect on cell cycle progression in human HCT-116 cells assessed as changes in cell cycle stages at 50 to 100 uM incubated for 72 hrs by PI-staining based flow cytometry; format: functional; conditions: dose 50-100 µM
[13] = tested on: HeLa; experiment: Induction of cell cycle arrest in human HeLa cells assessed as increase in number of cells at sub-G1 phase with DNA hypodiploid at 100 uM incubated for 72 hrs by PI-staining based flow cytometry (Rvb=2%); format: functional
[14] = tested on: U-937; experiment: Antiproliferative activity against human U-937 cells assessed as cell proliferation inhibition at 10 to 100 uM incubated for 72 hrs by MTT assay; format: functional, cell-based; conditions: dose 10-100 µM
[15] = biological target: Histone acetyltransferase p300 (Homo sapiens) (UniProt Q09472); experiment: Inhibition of recombinant human KAT3B (1287 to 1673 residues) using histone H3 peptide and [3H]-acetyl-coA as substrates at 200 uM incubated for 1 hrs by liquid scintillation counter analysis
Chain of Histone acetyltransferase p300 (Homo sapiens) (Q09472 whole entry, the tested form may be a part): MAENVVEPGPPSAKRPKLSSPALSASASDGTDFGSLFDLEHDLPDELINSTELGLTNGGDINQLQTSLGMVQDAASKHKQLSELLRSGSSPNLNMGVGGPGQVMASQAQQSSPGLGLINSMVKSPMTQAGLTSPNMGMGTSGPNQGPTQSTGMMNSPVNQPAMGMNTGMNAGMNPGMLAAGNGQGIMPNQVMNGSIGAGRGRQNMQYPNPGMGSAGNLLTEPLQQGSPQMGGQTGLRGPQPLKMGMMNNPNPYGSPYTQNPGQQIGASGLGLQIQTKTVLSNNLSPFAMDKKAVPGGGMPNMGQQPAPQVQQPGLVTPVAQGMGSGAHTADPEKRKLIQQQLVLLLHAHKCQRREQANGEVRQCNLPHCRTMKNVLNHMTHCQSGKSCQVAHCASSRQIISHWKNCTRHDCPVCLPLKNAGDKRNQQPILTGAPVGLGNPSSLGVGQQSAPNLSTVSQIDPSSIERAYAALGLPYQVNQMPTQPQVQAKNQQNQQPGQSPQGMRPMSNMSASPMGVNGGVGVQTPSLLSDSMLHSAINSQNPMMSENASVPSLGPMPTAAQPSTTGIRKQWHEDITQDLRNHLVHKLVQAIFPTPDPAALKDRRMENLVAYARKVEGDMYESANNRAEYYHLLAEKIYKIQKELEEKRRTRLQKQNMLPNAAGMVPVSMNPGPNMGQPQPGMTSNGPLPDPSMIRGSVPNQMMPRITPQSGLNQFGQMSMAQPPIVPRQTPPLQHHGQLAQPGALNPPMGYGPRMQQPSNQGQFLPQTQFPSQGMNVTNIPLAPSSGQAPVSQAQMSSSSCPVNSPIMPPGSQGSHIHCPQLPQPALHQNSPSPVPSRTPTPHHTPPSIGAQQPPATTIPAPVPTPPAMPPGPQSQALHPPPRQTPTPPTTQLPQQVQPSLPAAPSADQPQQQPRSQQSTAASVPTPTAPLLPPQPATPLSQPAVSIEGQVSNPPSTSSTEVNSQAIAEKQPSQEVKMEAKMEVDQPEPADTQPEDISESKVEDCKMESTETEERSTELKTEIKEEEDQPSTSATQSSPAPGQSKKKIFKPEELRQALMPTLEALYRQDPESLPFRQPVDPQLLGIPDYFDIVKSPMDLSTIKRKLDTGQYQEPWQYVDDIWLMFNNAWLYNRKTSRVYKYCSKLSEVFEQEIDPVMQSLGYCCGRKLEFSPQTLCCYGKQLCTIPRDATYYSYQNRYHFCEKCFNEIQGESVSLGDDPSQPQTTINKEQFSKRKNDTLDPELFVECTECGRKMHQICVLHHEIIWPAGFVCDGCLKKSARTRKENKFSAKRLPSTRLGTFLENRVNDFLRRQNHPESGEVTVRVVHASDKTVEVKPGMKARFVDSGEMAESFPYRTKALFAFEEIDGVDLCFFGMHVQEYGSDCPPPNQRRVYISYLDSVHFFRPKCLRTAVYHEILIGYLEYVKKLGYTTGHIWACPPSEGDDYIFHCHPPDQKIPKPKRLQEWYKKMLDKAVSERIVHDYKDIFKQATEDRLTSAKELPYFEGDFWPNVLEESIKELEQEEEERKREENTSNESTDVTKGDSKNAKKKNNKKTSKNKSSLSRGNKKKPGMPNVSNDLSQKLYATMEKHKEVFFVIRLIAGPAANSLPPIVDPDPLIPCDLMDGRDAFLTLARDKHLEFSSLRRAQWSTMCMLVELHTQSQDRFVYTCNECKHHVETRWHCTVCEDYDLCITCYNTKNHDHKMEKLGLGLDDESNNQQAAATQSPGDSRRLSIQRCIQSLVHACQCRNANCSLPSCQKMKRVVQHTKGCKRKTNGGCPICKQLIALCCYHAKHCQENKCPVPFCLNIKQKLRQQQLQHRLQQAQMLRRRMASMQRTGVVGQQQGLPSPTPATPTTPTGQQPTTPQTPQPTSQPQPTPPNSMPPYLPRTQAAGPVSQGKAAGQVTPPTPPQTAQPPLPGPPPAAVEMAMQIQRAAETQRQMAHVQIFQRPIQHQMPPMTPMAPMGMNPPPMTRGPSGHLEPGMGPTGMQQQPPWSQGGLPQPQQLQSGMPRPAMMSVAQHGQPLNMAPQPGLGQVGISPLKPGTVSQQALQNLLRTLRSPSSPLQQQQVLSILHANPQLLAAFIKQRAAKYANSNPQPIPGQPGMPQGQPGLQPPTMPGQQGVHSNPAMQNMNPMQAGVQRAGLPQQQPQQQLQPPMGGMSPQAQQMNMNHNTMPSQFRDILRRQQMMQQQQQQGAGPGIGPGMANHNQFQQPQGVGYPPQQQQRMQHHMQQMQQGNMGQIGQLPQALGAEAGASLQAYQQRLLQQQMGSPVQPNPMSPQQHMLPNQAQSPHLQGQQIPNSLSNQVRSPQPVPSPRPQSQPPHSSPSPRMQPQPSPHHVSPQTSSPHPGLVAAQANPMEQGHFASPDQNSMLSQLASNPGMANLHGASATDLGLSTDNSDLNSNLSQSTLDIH

[16] = biological target: T1, Histone acetyltransferase KAT8 (Homo sapiens); experiment: Inhibition of human KAT8 in human HT-29 cells assessed as decrease in histone H4K16 acetylation level at 10 to 50 uM incubated for 24 hrs by Western blot analysis; format: cell-based; conditions: dose 10-50 µM
[17] = tested on: HeLa; experiment: Effect on cell cycle progression in human HeLa cells assessed as changes in cell cycle stages at 50 to 100 uM incubated for 72 hrs by PI-staining based flow cytometry; format: functional; conditions: dose 50-100 µM
[18] = tested on: NCI-H1299; experiment: Induction of autophagy in human NCI-H1299 cells stably expressing EGFP-LC3 assessed as increase in p62 expression level at 10 to 100 uM incubated for 48 hrs by Western blot analysis; format: functional, cell-based; conditions: dose 10-100 µM
[19] = tested on: HT-29; experiment: Induction of cell cycle arrest in human HT-29 cells assessed as increase in number of cells at sub-G1 phase with DNA hypodiploid at 100 uM incubated for 72 hrs by PI-staining based flow cytometry (Rvb=2%); format: functional
[20] = tested on: NCI-H1299; experiment: Induction of autophagy in human NCI-H1299 cells stably expressing EGFP-LC3 assessed as change in LC3-II/LC3-I ratio at 10 to 100 uM incubated for 48 hrs by Western blot analysis; format: functional, cell-based; conditions: dose 10-100 µM
[21] = tested on: HeLa; experiment: Induction of apoptosis in human HeLa cells assessed as slight increase in apoptotic cells at 50 to 100 uM incubated for 72 hrs by Annexin V-FITC staining based flow cytometry; format: functional, cell-based; conditions: dose 50-100 µM
[22] = GSH reactivity of compound at pH 7.5 buffer at 0.5 mM and measured upto 24 hrs in presence of DTT and BME by HPLC analysis; format: physicochemical; conditions: pH 7.5, 24 h, 500 µM
[23] = biological target: T1, Histone acetyltransferase KAT8 (Homo sapiens); experiment: Binding affinity to KAT8 in human HT-29 cells assessed as stabilization of enzyme against thermal induced aggregation at 59 degreeC at 100 nM incubated for 4 hrs by Western blot analysis; format: cell-based
[24] = tested on: MCF7; experiment: Antiproliferative activity against human MCF7 cells assessed as cell proliferation inhibition at 10 to 100 uM incubated for 72 hrs by MTT assay; format: functional, cell-based; conditions: dose 10-100 µM
[25] = tested on: NCI-H1299; experiment: Induction of autophagy in human NCI-H1299 cells stably expressing EGFP-LC3 assessed as increase in autophagosome formation by measuring fluorescence spots at 10 to 100 uM incubated for 48 hrs by Fluorescence microscopy; format: functional, cell-based; conditions: dose 10-100 µM
[26] = biological target: Histone acetyltransferase KAT2A (Homo sapiens) (UniProt Q92830); experiment: Inhibition of recombinant human KAT2A (323 to 837 residues) using histone H3 peptide and [3H]-acetyl-coA as substrates at 200 uM incubated for 1 hrs by liquid scintillation counter analysis
Chain of Histone acetyltransferase KAT2A (Homo sapiens) (Q92830 2-837 limits assumed): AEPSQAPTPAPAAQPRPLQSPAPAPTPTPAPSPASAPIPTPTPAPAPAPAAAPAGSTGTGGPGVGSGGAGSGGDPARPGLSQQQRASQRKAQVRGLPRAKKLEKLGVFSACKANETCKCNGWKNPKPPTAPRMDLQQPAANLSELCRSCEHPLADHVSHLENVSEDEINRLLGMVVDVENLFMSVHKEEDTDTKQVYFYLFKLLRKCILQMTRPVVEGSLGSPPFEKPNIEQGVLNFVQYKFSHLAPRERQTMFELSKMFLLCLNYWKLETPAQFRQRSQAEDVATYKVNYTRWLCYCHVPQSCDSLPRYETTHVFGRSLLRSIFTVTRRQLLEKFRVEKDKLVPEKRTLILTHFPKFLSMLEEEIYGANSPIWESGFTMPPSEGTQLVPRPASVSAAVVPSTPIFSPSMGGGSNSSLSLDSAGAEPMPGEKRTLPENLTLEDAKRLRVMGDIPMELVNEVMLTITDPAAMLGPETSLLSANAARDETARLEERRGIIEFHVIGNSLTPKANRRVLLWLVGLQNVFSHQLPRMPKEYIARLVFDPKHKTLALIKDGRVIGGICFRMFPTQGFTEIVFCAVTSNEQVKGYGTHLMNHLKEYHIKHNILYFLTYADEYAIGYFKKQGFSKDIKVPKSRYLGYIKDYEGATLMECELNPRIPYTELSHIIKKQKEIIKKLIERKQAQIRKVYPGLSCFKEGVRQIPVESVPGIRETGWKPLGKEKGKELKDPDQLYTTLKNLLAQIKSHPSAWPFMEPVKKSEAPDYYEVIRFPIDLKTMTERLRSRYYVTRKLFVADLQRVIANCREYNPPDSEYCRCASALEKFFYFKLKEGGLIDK

Q: For `CC1=NN(c2ccc(C(=O)O)cc2)C(=O)/C1=C\c1ccc[nH]1`, which inhibition [1] is on record?
A: Active

Q: And the Activity [2]?
A: Dose-Dependent Effect

Q: What about the Activity [3] of the same molecule?
A: Active

Q: What about the Activity [4] of the same molecule?
A: 3%

Q: And the inhibition [5]?
A: inactive

Q: What about the inhibition [6] of the same molecule?
A: inactive

Q: And the Activity [7]?
A: Active

Q: What about the Activity [8] of the same molecule?
A: Active

Q: What about the inhibition [9] of the same molecule?
A: inactive

Q: And the inhibition [10]?
A: inactive

Q: What about the Drug metabolism [11] of the same molecule?
A: Not Active

Q: What about the Activity [12] of the same molecule?
A: inactive

Q: And the Activity [13]?
A: 5%

Q: And the Activity [14]?
A: Dose-Dependent Effect

Q: And the inhibition [15]?
A: inactive

Q: What about the inhibition [16] of the same molecule?
A: Active

Q: And the Activity [17]?
A: inactive

Q: And the Activity [18]?
A: Active

Q: And the Activity [19]?
A: 15%

Q: What about the Activity [20] of the same molecule?
A: Active

Q: And the Activity [21]?
A: Active

Q: What about the Drug metabolism [22] of the same molecule?
A: Not Active

Q: What about the Activity [23] of the same molecule?
A: Active

Q: What about the Activity [24] of the same molecule?
A: inactive

Q: What about the Activity [25] of the same molecule?
A: Active

Q: And the inhibition [26]?
A: inactive

Q: Which inhibition [1] does the source give for `O=C(O)c1ccc(N2N=C(c3ccccc3)/C(=C/c3ccc[nH]3)C2=O)cc1` here?
A: Active

Q: What about the Activity [2] of the same molecule?
A: Dose-Dependent Effect

Q: What about the Activity [3] of the same molecule?
A: inactive

Q: And the Activity [4]?
A: 7%

Q: What about the inhibition [5] of the same molecule?
A: inactive

Q: What about the inhibition [6] of the same molecule?
A: inactive

Q: What about the Activity [7] of the same molecule?
A: Active

Q: What about the Activity [8] of the same molecule?
A: Active

Q: What about the inhibition [9] of the same molecule?
A: inactive

Q: What about the inhibition [10] of the same molecule?
A: inactive

Q: And the Drug metabolism [11]?
A: Not Active

Q: And the Activity [12]?
A: inactive

Q: What about the Activity [13] of the same molecule?
A: 4%

Q: And the Activity [14]?
A: Dose-Dependent Effect

Q: And the inhibition [15]?
A: inactive

Q: What about the inhibition [16] of the same molecule?
A: Active

Q: What about the Activity [17] of the same molecule?
A: inactive

Q: What about the Activity [18] of the same molecule?
A: Active

Q: What about the Activity [19] of the same molecule?
A: 14%

Q: What about the Activity [20] of the same molecule?
A: Active

Q: And the Activity [21]?
A: Active

Q: And the Drug metabolism [22]?
A: Not Active

Q: And the Activity [23]?
A: Active

Q: What about the Activity [24] of the same molecule?
A: inactive

Q: What about the Activity [25] of the same molecule?
A: Active

Q: And the inhibition [26]?
A: inactive
